Data taken from patent publication US5639439A, “Gallium dimercaptosuccinate as a novel tumor imaging agent” (Institute of Nuclear Energy Research, Taiwan, priority 1994, dated 1997).

Key:
glioblastoma (GBM) = assay: Animal biodistribution in glioblastoma (GBM) tumor-bearing athymic nude mice; assay type: in vivo; conditions: 2 hr. postinjection, tail vein
Method: The six-week old athymic nude mice were obtained from the Experiment Animal Center, Tri-service General Hospital, Taipei, Taiwan. The viable cultured cells, glioblastoma (GBM), were implanted in the upper back leg by intradermal injection. The tissue biodistribution of gallium-67 dimercaptosuccinate was determined following injection (0.15 to 0.2 ml) into tail vein of ketamine anesthetized in tumor-bearing mice. The reanesthetized animals were sacrificed immediately thereafter by decapitation at given time intervals. The organs of interest were subsequently excised, blotted with tissue paper, weighed and the radioactivity was measured. The tissue distribution of gallium-67 dimercaptosuccinate and gallium-67 chloride in tumor-bearing mice are shown in FIG. 1 at 2 hr. postinjection, as much as 7.8% and 1.1% were in GBM and gallium-67 chloride respectively.

tumor = assay: Gamma camera imaging of tumor-bearing mice; assay type: in vivo, athymic nude mice; conditions: gamma images at 5 min and 15 min
Method: FIG. 2 is a photograph showing the position of tumors in the body of athymic nude mice imaged […] after injection with gallium-67 dimercaptosuccinate.
Imaging was performed using the Elscint gamma camera with medium energy collimator, and a SIMIS-IV nuclear medicine computer for data processing.

Row | Compound | tissue distribution in GBM (glioblastoma (GBM)) [%] | in vivo stability (tumor)
1 | gallium-67 dimercaptosuccinate | 7.8 | stable in vivo
2 | [Cl][Ga]([Cl])[Cl] [gallium-67 chloride, reference compound] | 1.1 | –
